According to PMC7179119, “A New Positron Emission Tomography Probe for Orexin Receptors Neuroimaging” (Molecules, 2020):
Where two headings read alike, the source gives them in different places.

Experiments:
Test in all cases: PDSP off-target radioligand binding assay
[1] = biological target: T1, M2 (Homo sapiens, UniProt P08172)
T1 sequence (P08172 1-466): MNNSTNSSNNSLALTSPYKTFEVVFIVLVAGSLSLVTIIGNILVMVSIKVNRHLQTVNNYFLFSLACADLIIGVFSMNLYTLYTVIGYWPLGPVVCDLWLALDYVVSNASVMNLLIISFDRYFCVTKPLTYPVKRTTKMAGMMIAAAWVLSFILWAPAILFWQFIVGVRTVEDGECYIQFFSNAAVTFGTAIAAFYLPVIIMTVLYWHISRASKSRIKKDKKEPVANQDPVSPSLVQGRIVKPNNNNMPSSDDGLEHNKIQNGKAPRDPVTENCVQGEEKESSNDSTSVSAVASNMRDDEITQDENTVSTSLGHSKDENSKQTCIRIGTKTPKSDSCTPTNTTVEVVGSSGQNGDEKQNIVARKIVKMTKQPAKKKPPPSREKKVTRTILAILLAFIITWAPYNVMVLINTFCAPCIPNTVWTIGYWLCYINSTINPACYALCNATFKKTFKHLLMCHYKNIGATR
Procedure: (§1) Table S1. Off binding data of CW24.
(§2) The off-target binding assays were performed at PDSP with their standard protocol (https://pdspdb.unc.edu/pdspWeb/content/UNC-CH%20Protocol%20Book.pdf). In radioligand binding assays, CW24 was tested at a single concentration (10 µM) and in quadruplicate in 96-well plates. The binding assays were carried out in a final of volume of 125 µl per well in appropriate binding buffers. The hot ligand concentration is usually at a concentration close to the Kd (unless otherwise indicated). Total binding and nonspecific binding are determined in the absence and presence of 10 µM of the appropriate reference compound, respectively. In brief, plates are usually incubated at room temperature and in the dark for 90 mins. Reactions are stopped by vacuum filtration onto 0.3% polyethyleneimine (PEI) soaked 96-well filter mats using a 96-well Filtermate harvester, followed by three washes with cold wash buffers (for details, see Tables 2 to 24). Scintillation cocktail is then melted onto the microwave-dried filters on a hot plate and radioactivity is counted in a Microbeta counter.
(§3) Receptor % Inhibition 1 % Inhibition 2 % Inhibition 3 % Inhibition 4 Mean±SD %

[2] = biological target: DOR (Homo sapiens, UniProt P41143)
Procedure: as §1, §2, §3

[3] = biological target: SERT (Homo sapiens, UniProt P31645)
Procedure: as §1, §2, §3

[4] = biological target: T2, 5-HT2C (Homo sapiens, UniProt P28335)
T2 construct: NIMH PDSP
T2 sequence (P28335 33-458): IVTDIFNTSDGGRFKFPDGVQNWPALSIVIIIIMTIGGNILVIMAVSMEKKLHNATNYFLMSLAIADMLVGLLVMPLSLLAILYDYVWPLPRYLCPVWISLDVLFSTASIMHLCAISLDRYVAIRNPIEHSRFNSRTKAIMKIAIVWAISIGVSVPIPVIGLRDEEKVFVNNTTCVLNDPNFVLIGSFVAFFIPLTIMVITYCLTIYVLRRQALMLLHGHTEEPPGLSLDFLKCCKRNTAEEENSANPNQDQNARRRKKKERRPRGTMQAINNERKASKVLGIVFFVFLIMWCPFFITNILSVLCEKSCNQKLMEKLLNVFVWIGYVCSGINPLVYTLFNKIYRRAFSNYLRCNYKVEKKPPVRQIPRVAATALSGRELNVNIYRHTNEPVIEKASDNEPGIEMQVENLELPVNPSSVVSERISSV
Procedure: as §1, §2, §3

[5] = biological target: T3, 5-HT7A (Homo sapiens, UniProt P34969)
T3 construct: NIMH PDSP
Procedure: as §1, §2, §3

[6] = biological target: T4, 5-HT1D (Homo sapiens, UniProt P28221)
T4 construct: NIMH PDSP
Procedure: as §1, §2, §3

[7] = biological target: M3 (Homo sapiens, UniProt P20309)
Procedure: as §1, §2, §3

[8] = biological target: H1 (Homo sapiens, UniProt P35367)
Procedure: as §1, §2, §3

[9] = biological target: D5 (Homo sapiens, UniProt P21918)
Procedure: as §1, §2, §3

[10] = biological target: T5, 5-HT1A (Homo sapiens, UniProt P08908)
T5 construct: NIMH PDSP
T5 sequence (P08908 1-422): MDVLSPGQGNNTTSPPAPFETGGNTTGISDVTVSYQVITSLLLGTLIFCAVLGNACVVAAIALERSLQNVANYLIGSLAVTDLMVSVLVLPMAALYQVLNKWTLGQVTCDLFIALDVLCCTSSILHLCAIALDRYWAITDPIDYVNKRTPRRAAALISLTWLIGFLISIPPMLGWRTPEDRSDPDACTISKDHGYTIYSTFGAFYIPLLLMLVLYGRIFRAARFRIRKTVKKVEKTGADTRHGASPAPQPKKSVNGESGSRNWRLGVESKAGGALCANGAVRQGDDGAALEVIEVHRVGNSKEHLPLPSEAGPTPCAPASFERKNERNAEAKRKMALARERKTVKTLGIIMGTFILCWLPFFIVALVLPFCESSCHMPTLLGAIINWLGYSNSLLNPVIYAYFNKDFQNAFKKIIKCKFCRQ
Procedure: as §1, §2, §3

[11] = quadruplicate, read-out: Mean±SD % inhibition
[12] = replicate 1, read-out: % Inhibition 1
[13] = replicate 2, read-out: % Inhibition 2
[14] = replicate 3, read-out: % Inhibition 3
[15] = replicate 4, read-out: % Inhibition 4

T3 sequence (P34969 1-445 isoform P34969-2): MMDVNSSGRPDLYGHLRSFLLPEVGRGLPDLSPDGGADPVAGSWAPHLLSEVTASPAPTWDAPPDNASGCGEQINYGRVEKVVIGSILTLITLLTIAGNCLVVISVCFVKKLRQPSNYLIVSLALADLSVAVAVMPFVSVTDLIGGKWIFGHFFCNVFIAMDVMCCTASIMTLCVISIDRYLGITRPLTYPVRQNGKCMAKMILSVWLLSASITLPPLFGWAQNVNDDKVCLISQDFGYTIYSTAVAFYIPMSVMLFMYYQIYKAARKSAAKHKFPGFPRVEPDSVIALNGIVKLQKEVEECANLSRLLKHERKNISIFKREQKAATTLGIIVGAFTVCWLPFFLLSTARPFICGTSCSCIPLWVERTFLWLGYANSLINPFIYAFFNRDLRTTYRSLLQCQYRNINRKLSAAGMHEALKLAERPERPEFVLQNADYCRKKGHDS
Chain of M3 (P20309 whole entry): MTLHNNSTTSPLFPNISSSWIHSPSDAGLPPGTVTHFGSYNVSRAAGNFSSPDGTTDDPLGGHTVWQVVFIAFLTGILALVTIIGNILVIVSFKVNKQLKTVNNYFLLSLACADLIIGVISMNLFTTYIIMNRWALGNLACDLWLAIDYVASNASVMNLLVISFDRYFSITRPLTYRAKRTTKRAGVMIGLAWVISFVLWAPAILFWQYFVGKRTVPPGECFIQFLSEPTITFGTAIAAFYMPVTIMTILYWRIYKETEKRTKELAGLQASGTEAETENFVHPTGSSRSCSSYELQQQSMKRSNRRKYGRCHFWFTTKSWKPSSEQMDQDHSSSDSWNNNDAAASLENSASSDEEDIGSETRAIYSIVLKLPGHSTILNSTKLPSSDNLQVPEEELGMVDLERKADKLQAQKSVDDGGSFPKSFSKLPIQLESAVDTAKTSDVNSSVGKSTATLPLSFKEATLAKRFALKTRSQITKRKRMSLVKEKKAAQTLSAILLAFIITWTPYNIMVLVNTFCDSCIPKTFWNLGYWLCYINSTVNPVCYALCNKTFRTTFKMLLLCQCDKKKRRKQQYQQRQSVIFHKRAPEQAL
Chain of D5 (P21918 whole entry): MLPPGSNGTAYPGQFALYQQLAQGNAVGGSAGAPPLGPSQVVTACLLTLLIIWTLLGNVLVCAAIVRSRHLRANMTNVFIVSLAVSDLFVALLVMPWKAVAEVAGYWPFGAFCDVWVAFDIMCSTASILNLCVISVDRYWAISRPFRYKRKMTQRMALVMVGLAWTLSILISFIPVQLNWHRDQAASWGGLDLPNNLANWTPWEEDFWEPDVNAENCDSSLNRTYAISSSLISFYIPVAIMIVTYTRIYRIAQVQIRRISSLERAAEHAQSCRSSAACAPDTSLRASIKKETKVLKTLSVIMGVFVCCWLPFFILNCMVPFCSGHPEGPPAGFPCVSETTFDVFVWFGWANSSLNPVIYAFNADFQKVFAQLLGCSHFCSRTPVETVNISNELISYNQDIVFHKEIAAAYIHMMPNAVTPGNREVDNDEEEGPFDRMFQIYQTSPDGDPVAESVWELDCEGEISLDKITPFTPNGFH
Chain of SERT (P31645 whole entry, species assumed): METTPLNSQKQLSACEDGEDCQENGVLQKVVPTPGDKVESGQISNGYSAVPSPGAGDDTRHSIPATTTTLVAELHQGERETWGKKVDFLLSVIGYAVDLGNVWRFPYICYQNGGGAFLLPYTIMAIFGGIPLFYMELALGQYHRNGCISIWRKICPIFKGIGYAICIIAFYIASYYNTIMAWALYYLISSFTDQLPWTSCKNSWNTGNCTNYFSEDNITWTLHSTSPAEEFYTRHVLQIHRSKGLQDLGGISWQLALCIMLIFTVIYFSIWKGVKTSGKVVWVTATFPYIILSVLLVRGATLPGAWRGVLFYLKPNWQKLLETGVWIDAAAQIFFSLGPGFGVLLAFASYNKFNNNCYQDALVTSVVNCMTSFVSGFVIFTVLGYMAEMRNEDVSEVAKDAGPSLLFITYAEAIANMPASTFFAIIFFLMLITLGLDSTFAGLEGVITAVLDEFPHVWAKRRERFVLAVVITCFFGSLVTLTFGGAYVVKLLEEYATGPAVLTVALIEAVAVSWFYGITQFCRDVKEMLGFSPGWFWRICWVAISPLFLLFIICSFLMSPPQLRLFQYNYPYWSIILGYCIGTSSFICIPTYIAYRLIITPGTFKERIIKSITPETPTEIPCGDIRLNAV
Chain of DOR (P41143 whole entry): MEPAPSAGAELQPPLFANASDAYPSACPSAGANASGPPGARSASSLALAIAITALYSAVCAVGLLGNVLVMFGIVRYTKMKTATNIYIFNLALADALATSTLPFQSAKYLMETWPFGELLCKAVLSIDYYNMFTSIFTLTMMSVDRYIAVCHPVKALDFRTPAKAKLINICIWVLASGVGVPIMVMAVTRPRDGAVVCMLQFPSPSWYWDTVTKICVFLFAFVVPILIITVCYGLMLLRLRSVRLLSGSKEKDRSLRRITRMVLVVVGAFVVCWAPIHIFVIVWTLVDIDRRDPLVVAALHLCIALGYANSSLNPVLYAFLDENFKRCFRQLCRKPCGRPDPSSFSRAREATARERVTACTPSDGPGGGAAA
T4 sequence (P28221 whole entry, species assumed): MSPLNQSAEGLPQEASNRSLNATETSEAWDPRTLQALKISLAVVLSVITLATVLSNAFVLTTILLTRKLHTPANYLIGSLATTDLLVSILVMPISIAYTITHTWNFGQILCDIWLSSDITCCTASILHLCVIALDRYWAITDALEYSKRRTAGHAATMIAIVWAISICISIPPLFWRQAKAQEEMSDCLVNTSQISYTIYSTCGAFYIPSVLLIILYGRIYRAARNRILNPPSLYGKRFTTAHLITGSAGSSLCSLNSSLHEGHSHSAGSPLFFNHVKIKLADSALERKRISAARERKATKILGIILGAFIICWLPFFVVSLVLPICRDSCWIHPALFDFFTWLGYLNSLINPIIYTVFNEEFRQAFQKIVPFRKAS
Chain of H1 (P35367 whole entry): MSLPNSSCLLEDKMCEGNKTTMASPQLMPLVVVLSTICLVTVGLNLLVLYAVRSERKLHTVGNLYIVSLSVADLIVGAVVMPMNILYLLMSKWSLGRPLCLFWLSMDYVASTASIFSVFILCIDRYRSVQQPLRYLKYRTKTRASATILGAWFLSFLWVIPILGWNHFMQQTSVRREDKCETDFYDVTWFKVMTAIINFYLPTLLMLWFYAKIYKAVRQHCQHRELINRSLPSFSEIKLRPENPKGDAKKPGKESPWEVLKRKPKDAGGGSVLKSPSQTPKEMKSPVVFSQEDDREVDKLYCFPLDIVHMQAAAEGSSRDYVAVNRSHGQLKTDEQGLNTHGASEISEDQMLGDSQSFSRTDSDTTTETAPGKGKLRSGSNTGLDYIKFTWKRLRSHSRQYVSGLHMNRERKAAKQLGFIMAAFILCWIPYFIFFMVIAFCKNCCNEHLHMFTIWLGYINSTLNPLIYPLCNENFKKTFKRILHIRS

For COc1ccnc(N2CCC3(CCCN(Cc4cn(C)c5ccccc45)C3=O)CC2)n1 [CW24], the inhibition at 10 µM [1, 11] was -0.08 ± 16.7%, the inhibition at 10 µM [1, 12] was -1.12% and the inhibition at 10 µM [1, 13] was -4.61%. For the same molecule, the inhibition at 10 µM [1, 14] was -17.4%, the inhibition at 10 µM [1, 15] was 22.8% and the inhibition at 10 µM [2, 11] was 13.9 ± 19.1%. For the same molecule, the inhibition at 10 µM [2, 12] was 41%, the inhibition at 10 µM [2, 13] was 8.06% and the inhibition at 10 µM [2, 14] was 10.6%. For the same molecule, the inhibition at 10 µM [2, 15] was -3.98%, the inhibition at 10 µM [3, 11] was 10.8 ± 11.9% and the inhibition at 10 µM [3, 12] was 10.6%. For the same molecule, the inhibition at 10 µM [3, 13] was -3.59%, the inhibition at 10 µM [3, 14] was 10.6% and the inhibition at 10 µM [3, 15] was 25.6%. The inhibition at 10 µM [4, 11] was 14.3 ± 40.6%, the inhibition at 10 µM [4, 12] was 28.8% and the inhibition at 10 µM [4, 13] was -38.5%. It also gave an inhibition at 10 µM [4, 14] of 8.5%, an inhibition at 10 µM [4, 15] of 58.2% and an inhibition at 10 µM [5, 11] of -54.8 ± 29.3%. It also gave an inhibition at 10 µM [5, 12] of -92.7%, an inhibition at 10 µM [5, 13] of -50.8% and an inhibition at 10 µM [5, 14] of -54.3%. It also gave an inhibition at 10 µM [5, 15] of -21.2%, an inhibition at 10 µM [6, 11] of 23.5 ± 9.4% and an inhibition at 10 µM [6, 12] of 32.1%. It also gave an inhibition at 10 µM [6, 13] of 20%, an inhibition at 10 µM [6, 14] of 11.9% and an inhibition at 10 µM [6, 15] of 30.2%. The inhibition at 10 µM [7, 11] was -9.56 ± 5.94%, the inhibition at 10 µM [7, 12] was -5.69% and the inhibition at 10 µM [7, 13] was -3.65%. The inhibition at 10 µM [7, 14] was -12.4%, the inhibition at 10 µM [7, 15] was -16.5% and the inhibition at 10 µM [8, 11] was 10.5 ± 12.7%. It also gave an inhibition at 10 µM [8, 12] of 13%, an inhibition at 10 µM [8, 13] of -0.52% and an inhibition at 10 µM [8, 14] of 1.94%. For the same molecule, the inhibition at 10 µM [8, 15] was 27.5%, the inhibition at 10 µM [9, 11] was 15.5 ± 27.3% and the inhibition at 10 µM [9, 12] was 4.57%. The inhibition at 10 µM [9, 13] was -5.32%, the inhibition at 10 µM [9, 14] was 7.05% and the inhibition at 10 µM [9, 15] was 55.8%. For the same molecule, the inhibition at 10 µM [10, 11] was -10.2 ± 8.4%, the inhibition at 10 µM [10, 12] was -4.55% and the inhibition at 10 µM [10, 13] was -4.08%. For the same molecule, the inhibition at 10 µM [10, 14] was -22.1% and the inhibition at 10 µM [10, 15] was -9.84%.
